Test results from the NIST ThermoML archive (doi:10.1021/je101361u).
Numbers after ± are expanded uncertainties.

Settings: 101.33 kPa, Liquid

ClCCCl [1,2-dichloroethane]
Settings | mass density [kg/m3]
283.15 K | 1267.39 ± 0.29
284.15 K | 1265.95 ± 0.29
285.15 K | 1264.5 ± 0.29
286.15 K | 1263.05 ± 0.29
287.15 K | 1261.6 ± 0.28
288.15 K | 1260.15 ± 0.28
289.15 K | 1258.7 ± 0.28
290.15 K | 1257.25 ± 0.28
291.15 K | 1255.8 ± 0.28
292.15 K | 1254.35 ± 0.28
293.15 K | 1252.89 ± 0.28
294.15 K | 1251.44 ± 0.28
295.15 K | 1249.98 ± 0.28
296.15 K | 1248.52 ± 0.27
297.15 K | 1247.07 ± 0.27
298.15 K | 1245.61 ± 0.27
299.15 K | 1244.15 ± 0.27
300.15 K | 1242.69 ± 0.27
301.15 K | 1241.22 ± 0.27
302.15 K | 1239.76 ± 0.27
303.15 K | 1238.29 ± 0.27
304.15 K | 1236.83 ± 0.26
305.15 K | 1235.36 ± 0.26
306.15 K | 1233.89 ± 0.26
307.15 K | 1232.42 ± 0.26
308.15 K | 1230.95 ± 0.26
309.15 K | 1229.47 ± 0.26
310.15 K | 1228 ± 0.26
311.15 K | 1226.53 ± 0.26
312.15 K | 1225.05 ± 0.26
313.15 K | 1223.57 ± 0.25
314.15 K | 1222.09 ± 0.25
315.15 K | 1220.61 ± 0.25
316.15 K | 1219.13 ± 0.25
317.15 K | 1217.64 ± 0.25
318.15 K | 1216.16 ± 0.25
319.15 K | 1214.67 ± 0.25
320.15 K | 1213.18 ± 0.25
321.15 K | 1211.69 ± 0.24
322.15 K | 1210.2 ± 0.24
323.15 K | 1208.7 ± 0.24
324.15 K | 1207.21 ± 0.24
325.15 K | 1205.71 ± 0.24
326.15 K | 1204.21 ± 0.24
327.15 K | 1202.71 ± 0.24
328.15 K | 1201.21 ± 0.24
329.15 K | 1199.7 ± 0.23
330.15 K | 1198.19 ± 0.23
331.15 K | 1196.69 ± 0.23
332.15 K | 1195.18 ± 0.23
333.15 K | 1193.66 ± 0.23

COCCOC [1,2-dimethoxyethane]
Settings | mass density [kg/m3]
283.15 K | 877.64 ± 0.47
284.15 K | 876.56 ± 0.47
285.15 K | 875.48 ± 0.47
286.15 K | 874.4 ± 0.48
287.15 K | 873.31 ± 0.48
288.15 K | 872.23 ± 0.48
289.15 K | 871.14 ± 0.48
290.15 K | 870.05 ± 0.48
291.15 K | 868.96 ± 0.48
292.15 K | 867.87 ± 0.48
293.15 K | 866.79 ± 0.49
294.15 K | 865.7 ± 0.49
295.15 K | 864.61 ± 0.49
296.15 K | 863.51 ± 0.49
297.15 K | 862.42 ± 0.49
298.15 K | 861.32 ± 0.49
299.15 K | 860.22 ± 0.49
300.15 K | 859.12 ± 0.5
301.15 K | 858.01 ± 0.5
302.15 K | 856.91 ± 0.5
303.15 K | 855.8 ± 0.5
304.15 K | 854.69 ± 0.5
305.15 K | 853.58 ± 0.5
306.15 K | 852.46 ± 0.5
307.15 K | 851.35 ± 0.51
308.15 K | 850.24 ± 0.51
309.15 K | 849.13 ± 0.51
310.15 K | 848.02 ± 0.51
311.15 K | 846.9 ± 0.51
312.15 K | 845.79 ± 0.51
313.15 K | 844.67 ± 0.51
314.15 K | 843.55 ± 0.52
315.15 K | 842.42 ± 0.52
316.15 K | 841.29 ± 0.52
317.15 K | 840.17 ± 0.52
318.15 K | 839.04 ± 0.52
319.15 K | 837.91 ± 0.52
320.15 K | 836.77 ± 0.52
321.15 K | 835.64 ± 0.53
322.15 K | 834.5 ± 0.53
323.15 K | 833.36 ± 0.53
324.15 K | 832.22 ± 0.53
325.15 K | 831.08 ± 0.53
326.15 K | 829.93 ± 0.53
327.15 K | 828.78 ± 0.53
328.15 K | 827.63 ± 0.54
329.15 K | 826.48 ± 0.54
330.15 K | 825.33 ± 0.54
331.15 K | 824.17 ± 0.54
332.15 K | 823.02 ± 0.54
333.15 K | 821.86 ± 0.54

COCCOCCOC [2,5,8-trioxanonane]
Settings | mass density [kg/m3]
283.15 K | 953.66 ± 0.38
284.15 K | 952.67 ± 0.38
285.15 K | 951.69 ± 0.38
286.15 K | 950.7 ± 0.38
287.15 K | 949.71 ± 0.38
288.15 K | 948.72 ± 0.38
289.15 K | 947.73 ± 0.39
290.15 K | 946.74 ± 0.39
291.15 K | 945.75 ± 0.39
292.15 K | 944.76 ± 0.39
293.15 K | 943.76 ± 0.39
294.15 K | 942.79 ± 0.39
295.15 K | 941.79 ± 0.39
296.15 K | 940.79 ± 0.39
297.15 K | 939.8 ± 0.4
298.15 K | 938.8 ± 0.4
299.15 K | 937.8 ± 0.4
300.15 K | 936.81 ± 0.4
301.15 K | 935.81 ± 0.4
302.15 K | 934.82 ± 0.4
303.15 K | 933.82 ± 0.4
304.15 K | 932.82 ± 0.4
305.15 K | 931.82 ± 0.4
306.15 K | 930.82 ± 0.41
307.15 K | 929.83 ± 0.41
308.15 K | 928.83 ± 0.41
309.15 K | 927.82 ± 0.41
310.15 K | 926.83 ± 0.41
311.15 K | 925.82 ± 0.41
312.15 K | 924.82 ± 0.41
313.15 K | 923.82 ± 0.41
314.15 K | 922.81 ± 0.42
315.15 K | 921.81 ± 0.42
316.15 K | 920.8 ± 0.42
317.15 K | 919.8 ± 0.42
318.15 K | 918.79 ± 0.42
319.15 K | 917.78 ± 0.42
320.15 K | 916.78 ± 0.42
321.15 K | 915.77 ± 0.42
322.15 K | 914.75 ± 0.43
323.15 K | 913.75 ± 0.43
324.15 K | 912.73 ± 0.43
325.15 K | 911.72 ± 0.43
326.15 K | 910.7 ± 0.43
327.15 K | 909.69 ± 0.43
328.15 K | 908.67 ± 0.43
329.15 K | 907.65 ± 0.44
330.15 K | 906.63 ± 0.44
331.15 K | 905.62 ± 0.44
332.15 K | 904.6 ± 0.44
333.15 K | 903.59 ± 0.44

CCOCCOCCOCC [diethylene glycol diethyl ether]
Settings | mass density [kg/m3]
283.15 K | 916.36 ± 1.1
284.15 K | 915.39 ± 1.1
285.15 K | 914.43 ± 1.1
286.15 K | 913.46 ± 1.1
287.15 K | 912.5 ± 1.1
288.15 K | 911.53 ± 1.1
289.15 K | 910.57 ± 1.1
290.15 K | 909.6 ± 1.1
291.15 K | 908.63 ± 1.1
292.15 K | 907.67 ± 1.1
293.15 K | 906.71 ± 1.1
294.15 K | 905.75 ± 1.1
295.15 K | 904.78 ± 1.1
296.15 K | 903.81 ± 1.1
297.15 K | 902.85 ± 1.1
298.15 K | 901.88 ± 1.1
299.15 K | 900.92 ± 1.1
300.15 K | 899.95 ± 1.1
301.15 K | 898.98 ± 1.1
302.15 K | 898.02 ± 1.1
303.15 K | 897.05 ± 1.1
304.15 K | 896.08 ± 1.1
305.15 K | 895.12 ± 1.1
306.15 K | 894.15 ± 1.1
307.15 K | 893.18 ± 1.1
308.15 K | 892.21 ± 1.1
309.15 K | 891.25 ± 1.1
310.15 K | 890.28 ± 1.1
311.15 K | 889.31 ± 1.1
312.15 K | 888.34 ± 1.1
313.15 K | 887.37 ± 1.1
314.15 K | 886.4 ± 1.1
315.15 K | 885.43 ± 1.1
316.15 K | 884.46 ± 1.1
317.15 K | 883.48 ± 1.1
318.15 K | 882.51 ± 1.1
319.15 K | 881.54 ± 1.1
320.15 K | 880.57 ± 1.1
321.15 K | 879.6 ± 1.1
322.15 K | 878.63 ± 1.1
323.15 K | 877.66 ± 1.1
324.15 K | 876.7 ± 1.1
325.15 K | 875.73 ± 1.1
326.15 K | 874.75 ± 1.1
327.15 K | 873.78 ± 1.1
328.15 K | 872.81 ± 1.1
329.15 K | 871.84 ± 1.1
330.15 K | 870.87 ± 1.1
331.15 K | 869.89 ± 1.1
332.15 K | 868.92 ± 1.1
333.15 K | 867.94 ± 1.1
